# Experimental data: PubChem BioAssay AID1919001 (Molecular Pharmacology Branch, DTP, NCI, 2023)
# Several values for one entry are separate records, joined by “and”; a condition that tells them apart may be missing. Equal values may be shown once.
# Test system: 699152-130-R-J1-PDC complex spheroid growth
# Experiment: Anticancer human tumor 699152-130-R-J1-PDC patient-derived pancreatic carcinoma cell line growth inhibition [AhR]
# Settings: for viability, T/C: stronger effect = lower value
# Procedure, shortened: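 Spheroids combined tumor cells with HUVEC endothelial cells and human MSCs as stroma. AhR antagonists were paired with standard or investigational drugs, each dosed in half-log steps down from near clinical Cmax, or from 10 microM where Cmax was unknown.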
# [1] = curve of first compound, second compound 0.1 µM
# [2] = curve of first compound, second compound 0.316 µM
# [3] = curve of first compound, second compound 1 µM
# [4] = curve of first compound, second compound 3.16 µM
# [5] = curve of first compound, second compound 10 µM
# [6] = second compound 0.1 µM, first compound 0.0316 µM
# [7] = second compound 0.1 µM, first compound 0.1 µM
# [8] = second compound 0.1 µM, first compound 0.316 µM
# [9] = second compound 0.1 µM, first compound 1 µM
# [10] = second compound 0.1 µM, first compound 3.16 µM
# [11] = second compound 0.1 µM, first compound 10 µM
# [12] = second compound 0.316 µM, first compound 0.0316 µM
# [13] = second compound 0.316 µM, first compound 0.1 µM
# [14] = second compound 0.316 µM, first compound 0.316 µM
# [15] = second compound 0.316 µM, first compound 1 µM
# [16] = second compound 0.316 µM, first compound 3.16 µM
# [17] = second compound 0.316 µM, first compound 10 µM
# [18] = second compound 1 µM, first compound 0.0316 µM
# [19] = second compound 1 µM, first compound 0.1 µM
# [20] = second compound 1 µM, first compound 0.316 µM
# [21] = second compound 1 µM, first compound 1 µM
# [22] = second compound 1 µM, first compound 3.16 µM
# [23] = second compound 1 µM, first compound 10 µM
# [24] = second compound 3.16 µM, first compound 0.0316 µM
# [25] = second compound 3.16 µM, first compound 0.1 µM
# [26] = second compound 3.16 µM, first compound 0.316 µM
# [27] = second compound 3.16 µM, first compound 1 µM
# [28] = second compound 3.16 µM, first compound 3.16 µM
# [29] = second compound 3.16 µM, first compound 10 µM
# [30] = second compound 10 µM, first compound 0.0316 µM
# [31] = second compound 10 µM, first compound 0.1 µM
# [32] = second compound 10 µM, first compound 0.316 µM
# [33] = second compound 10 µM, first compound 1 µM
# [34] = second compound 10 µM, first compound 3.16 µM
# [35] = second compound 10 µM, first compound 10 µM
# 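Also: compound exposure lasted 7 days after spheroids had grown for 3 days.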
compound,measurement,setting,value
COc1ccc([C@@H](O)c2cc(-c3ncnc4cc(N5CCOCC5)ccc34)c(F)cc2Cl)nn1 + CC(CO)NC(=O)c1cc(-c2ccc(Cl)cc2)nn(-c2cnn(C)c2)c1=O,IC50,[1],3.77 µM
same,IC50,[2],4.81 µM
same,IC50,[3],4.41 µM
same,IC50,[4],4.24 µM
same,IC50,[5],2.61 µM
same,"viability, T/C",[6],95.1%
same,"viability, T/C",[7],105%
same,"viability, T/C",[8],86.2%
same,"viability, T/C",[9],78.6%
same,"viability, T/C",[10],52.5%
same,"viability, T/C",[11],33.1%
same,"viability, T/C",[12],93.5%
same,"viability, T/C",[13],90.2%
same,"viability, T/C",[14],91.9%
same,"viability, T/C",[15],74.3%
same,"viability, T/C",[16],61.5%
same,"viability, T/C",[17],32.1%
same,"viability, T/C",[18],108%
same,"viability, T/C",[19],100%
same,"viability, T/C",[20],94.2%
same,"viability, T/C",[21],74.1%
same,"viability, T/C",[22],56.5%
same,"viability, T/C",[23],35.9%
same,"viability, T/C",[24],85%
same,"viability, T/C",[25],105%
same,"viability, T/C",[26],94.9%
same,"viability, T/C",[27],70.6%
same,"viability, T/C",[28],58.8%
same,"viability, T/C",[29],34.8%
same,"viability, T/C",[30],88.8%
same,"viability, T/C",[31],87.9%
same,"viability, T/C",[32],68.9%
same,"viability, T/C",[33],63.4%
same,"viability, T/C",[34],47.1%
same,"viability, T/C",[35],38.1%
CC1COCCN1c1cc(C2(S(C)(=N)=O)CC2)nc(-c2ccnc3[nH]ccc23)n1 (centres undefined) + Cc1ccccc1N=Nc1ccc(NC(=O)c2ccnn2C)c(C)c1,IC50,[1],> 10 µM
same,IC50,[2],> 10 µM
same,IC50,[3],> 10 µM
same,IC50,[4],> 10 µM
same,IC50,[5],> 10 µM
same,"viability, T/C",[6],109%
same,"viability, T/C",[7],109%
same,"viability, T/C",[8],86.1%
same,"viability, T/C",[9],88.9%
same,"viability, T/C",[10],88.4%
same,"viability, T/C",[11],73.7%
same,"viability, T/C",[12],92%
same,"viability, T/C",[13],98%
same,"viability, T/C",[14],98.4%
same,"viability, T/C",[15],101%
same,"viability, T/C",[16],84.9%
same,"viability, T/C",[17],65.8%
same,"viability, T/C",[18],90.5%
same,"viability, T/C",[19],101%
same,"viability, T/C",[20],99.5%
same,"viability, T/C",[21],95.9%
same,"viability, T/C",[22],84.8%
same,"viability, T/C",[23],65.3%
same,"viability, T/C",[24],105%
same,"viability, T/C",[25],97%
same,"viability, T/C",[26],97.9%
same,"viability, T/C",[27],99%
same,"viability, T/C",[28],79.2%
same,"viability, T/C",[29],69.8%
same,"viability, T/C",[30],111%
same,"viability, T/C",[31],125%
same,"viability, T/C",[32],112%
same,"viability, T/C",[33],104%
same,"viability, T/C",[34],94.8%
same,"viability, T/C",[35],80.6%
NS(=O)(=O)OCC1CC(n2ccc3c(NC4CCc5ccccc54)ncnc32)CC1O (centres undefined),"viability, T/C",compound 0.0316 µM,96.1% and 125% and 117%
same,"viability, T/C",compound 0.1 µM,123% and 111% and 125%
same,"viability, T/C",compound 0.316 µM,127% and 113% and 129%
same,"viability, T/C",compound 1 µM,67.1% and 38% and 43.2%
same,"viability, T/C",compound 3.16 µM,18.2% and 19.7% and 24.9%
same,"viability, T/C",compound 10 µM,20.3% and 24% and 29.6%
same,IC50,curve of compound,1.51 µM and 0.832 µM and 0.802 µM
Cn1ncnc1C1c2n[nH]c(=O)c3cc(F)cc(c23)NC1c1ccc(F)cc1 (centres undefined) + Cc1ccccc1N=Nc1ccc(NC(=O)c2ccnn2C)c(C)c1,IC50,[1],> 0.1 µM
same,IC50,[2],> 0.1 µM
same,IC50,[3],> 0.1 µM
same,IC50,[4],> 0.1 µM
same,IC50,[5],> 0.1 µM
same,"viability, T/C","second compound 0.1 µM, first compound 0.000316 µM",83.7%
same,"viability, T/C","second compound 0.1 µM, first compound 0.001 µM",101%
same,"viability, T/C","second compound 0.1 µM, first compound 0.00316 µM",101%
same,"viability, T/C","second compound 0.1 µM, first compound 0.01 µM",87%
same,"viability, T/C",[6],99.2%
same,"viability, T/C",[7],100%
same,"viability, T/C","second compound 0.316 µM, first compound 0.000316 µM",102%
same,"viability, T/C","second compound 0.316 µM, first compound 0.001 µM",96.5%
same,"viability, T/C","second compound 0.316 µM, first compound 0.00316 µM",97.8%
same,"viability, T/C","second compound 0.316 µM, first compound 0.01 µM",88.8%
same,"viability, T/C",[12],92.4%
same,"viability, T/C",[13],80.1%
same,"viability, T/C","second compound 1 µM, first compound 0.000316 µM",107%
same,"viability, T/C","second compound 1 µM, first compound 0.001 µM",87%
same,"viability, T/C","second compound 1 µM, first compound 0.00316 µM",94%
same,"viability, T/C","second compound 1 µM, first compound 0.01 µM",98.4%
same,"viability, T/C",[18],95.5%
same,"viability, T/C",[19],83.2%
same,"viability, T/C","second compound 3.16 µM, first compound 0.000316 µM",97.5%
same,"viability, T/C","second compound 3.16 µM, first compound 0.001 µM",117%
same,"viability, T/C","second compound 3.16 µM, first compound 0.00316 µM",112%
same,"viability, T/C","second compound 3.16 µM, first compound 0.01 µM",100%
same,"viability, T/C",[24],90.5%
same,"viability, T/C",[25],99%
same,"viability, T/C","second compound 10 µM, first compound 0.000316 µM",113%
same,"viability, T/C","second compound 10 µM, first compound 0.001 µM",112%
same,"viability, T/C","second compound 10 µM, first compound 0.00316 µM",118%
same,"viability, T/C","second compound 10 µM, first compound 0.01 µM",122%
same,"viability, T/C",[30],108%
same,"viability, T/C",[31],105%
Nc1ccccc1NC(=O)c1ccc(CNC(=O)OCc2cccnc2)cc1 + Cc1cncc(-c2nc(NCCc3c[nH]c4ccccc34)c3ncn(C(C)C)c3n2)c1,IC50,[1],7.18 µM
same,IC50,[2],6.48 µM
same,IC50,[3],8.11 µM
same,IC50,[4],5.35 µM
same,IC50,[5],< 0.0316 µM
same,"viability, T/C",[6],94.9%
same,"viability, T/C",[7],96.5%
same,"viability, T/C",[8],99.3%
same,"viability, T/C",[9],107%
same,"viability, T/C",[10],77%
same,"viability, T/C",[11],39.1%
same,"viability, T/C",[12],110%
same,"viability, T/C",[13],97.2%
same,"viability, T/C",[14],105%
same,"viability, T/C",[15],105%
same,"viability, T/C",[16],72.3%
same,"viability, T/C",[17],36.5%
same,"viability, T/C",[18],118%
same,"viability, T/C",[19],116%
same,"viability, T/C",[20],113%
same,"viability, T/C",[21],108%
same,"viability, T/C",[22],72%
same,"viability, T/C",[23],45.1%
same,"viability, T/C",[24],77.8%
same,"viability, T/C",[25],81.4%
same,"viability, T/C",[26],70.3%
same,"viability, T/C",[27],64.2%
same,"viability, T/C",[28],68.1%
same,"viability, T/C",[29],33.8%
same,"viability, T/C",[30],11.6%
same,"viability, T/C",[31],7.91%
same,"viability, T/C",[32],7.77%
same,"viability, T/C",[33],9.69%
same,"viability, T/C",[34],7.99%
same,"viability, T/C",[35],3.12%
Nc1ncn(C2CC(O)C(CO)O2)c(=O)n1 (centres undefined),"viability, T/C",compound 0.00316 µM,93.4% and 101% and 95.4%
same,"viability, T/C",compound 0.01 µM,104% and 93.1% and 106%
same,"viability, T/C",compound 0.0316 µM,93.1% and 93% and 94.8%
same,"viability, T/C",compound 0.1 µM,91% and 96.5% and 87.2%
same,"viability, T/C",compound 0.316 µM,96.5% and 84.4% and 102%
same,"viability, T/C",compound 1 µM,92.9% and 87.3% and 89%
same,IC50,curve of compound,> 1 µM
